According to PMC10427817, “Bioactivities of β-mangostin and its new glycoside derivatives synthesized by enzymatic reactions” (Royal Society Open Science, 2023):
Converted amounts (≈) assume the structure as drawn. Where two headings read alike, the source gives them in different places.

Columns and labels:
[1] = system: KB epidermal carcinoma; test: MTT cytotoxicity assay, KB; assay type: cell-based, human; details: Homo sapiens, KB cell line, 72 h, mean ± s.d., three replicates
Experimental: (§1) The cytotoxic activities against the cancer cell lines KB epidermal carcinoma, A549 lung cancer, HepG2 liver cancer and MCF-7 breast cancer, as well as the healthy cell line HEK293 embryonic kidney cells, were determined using the 3-(4,5-dimethylthiazol-2-yl)-2,5-diphenyltetrazolium bromide (MTT) assay. Briefly, cell lines were grown into log phase at 37°C, 5% CO2 in DMEM-Dulbecco's modified Eagle's medium and 10% fetal bovine serum. A concentration of 1 × 10^4–3 × 10^4 cells ml^−1 was prepared depending on the cell line used for the experiment by adding 10 µl of the sample and 190 µl of the cell suspension, followed by incubation under standard conditions. After 72 h of culture, 10 µl of MTT (5 mg ml^−1) was added and incubated for 4 h. Dimethyl sulfoxide (100 µl) was added to dissolve formazan crystals and the density was measured at 540 nm using a BioTek spectrophotometer. The inhibition of cell growth was expressed as IC50 (the half-maximal inhibitory concentration) value.

[2] = system: MCF-7 breast cancer; test: MTT cytotoxicity assay, MCF-7; assay type: cell-based, human; details: Homo sapiens, MCF7, MCF-7 cell line, 72 h, mean ± s.d., three replicates
Experimental: as §1

[3] = system: A549 lung cancer; test: MTT cytotoxicity assay, A549; assay type: cell-based, human; details: Homo sapiens; A549 cell line, MTT, 72 h, mean ± s.d., three replicates; read-out: IC50
Experimental: as §1, with “value. Ellipticine was used as reference.” for “value.”

[4] = system: HepG2 liver cancer; test: MTT cytotoxicity assay, HepG2; assay type: cell-based, human; details: Homo sapiens, HepG2 cell line, 72 h, mean ± s.d., three replicates
Experimental: as §1, with “value. Ellipticine was used as reference.” for “value.”

[5] = system: KB, MCF-7, A549, HepG2, HEK293 cell lines; test: MTT cytotoxicity assay, range over all tested cell lines; assay type: cell-based, human; details: Homo sapiens; range over all tested cell lines, MTT, 72 h
Experimental: as §1, with “value. Ellipticine was used as reference.” for “value.”

[6] = molecular target: AChE (Homo sapiens, UniProt P22303); test: Acetylcholinesterase inhibitory activity assay; assay type: biochemical; details: AChE 0.25 IU ml^−1, ATCI/DTNB, mean ± s.d., three replicates
Sequence of AChE (P22303 32-614): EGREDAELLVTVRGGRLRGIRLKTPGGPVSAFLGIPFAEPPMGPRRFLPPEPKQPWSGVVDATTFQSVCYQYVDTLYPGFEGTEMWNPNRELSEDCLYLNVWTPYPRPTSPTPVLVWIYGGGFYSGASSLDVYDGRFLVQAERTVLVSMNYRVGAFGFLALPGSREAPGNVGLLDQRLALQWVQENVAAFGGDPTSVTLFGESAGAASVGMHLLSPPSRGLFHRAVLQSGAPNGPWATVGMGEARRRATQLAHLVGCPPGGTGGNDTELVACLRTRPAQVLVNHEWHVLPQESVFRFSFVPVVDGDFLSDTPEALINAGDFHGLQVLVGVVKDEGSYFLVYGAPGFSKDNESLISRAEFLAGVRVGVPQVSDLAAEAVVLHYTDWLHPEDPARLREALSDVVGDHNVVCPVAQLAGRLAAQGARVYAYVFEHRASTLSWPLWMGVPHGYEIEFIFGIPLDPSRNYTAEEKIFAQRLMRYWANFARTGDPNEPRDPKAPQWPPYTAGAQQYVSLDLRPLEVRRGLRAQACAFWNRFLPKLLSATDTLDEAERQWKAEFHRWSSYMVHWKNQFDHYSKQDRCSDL
Experimental: For the assay, acetylthiocholine iodide (ATCI) was used as a substrate for the reaction and 5,5′-dithiobis-(2-nitrobenzoic acid) (DTNB) was used to measure AChE activity. The reaction (200 µl) on a 96-well plate was performed by mixing Tris–Cl buffer (pH 8.0), tested sample in a twofold serial dilution, AChE (0.25 IU ml^−1) and incubating at 25°C, 15 min before adding 2.4 mM DTNB and 2.4 mM ATCI.

[7] = system: Staphylococcus aureus; test: Anti-microbial activity assay, S. aureus; assay type: cell-based; details: S. aureus
Experimental: (§2) Bacterial and fungal strains (Bacillus subtilis, Staphylococcus aureus, Lactobacillus fermentum, Escherichia coli, Pseudomonas aeruginosa, Salmonella enterica and Candida albicans) were activated on TSA (Tryptic Soy Agar) and SA (Sabouraud–4% dextrose agar) media, respectively. Before the experiment, the microbial strains were grown in the corresponding liquid media at a concentration of approximately 5 × 10^5 CFU ml^−1 for bacteria and 1 × 10^3 CFU ml^−1 for fungi. The microbial suspension (190 µl) was mixed with 10 µl of the test sample, which was serially diluted twofold, and the microplate was incubated at 37°C for 16–24 h.

[8] = system: Bacillus subtilis; test: Anti-microbial activity assay, B. subtilis; assay type: cell-based; details: B. subtilis
Experimental: as §2

[9] = system: Lactobacillus fermentum; test: Anti-microbial activity assay, L. fermentum; assay type: cell-based; details: L. fermentum
Experimental: as §2

[10] = system: Salmonella enterica; test: Anti-microbial activity assay, S. enterica; assay type: cell-based
Experimental: as §2

[11] = system: Pseudomonas aeruginosa; test: Anti-microbial activity assay, P. aeruginosa; assay type: cell-based
Experimental: as §2

[12] = system: Candida albicans; test: Anti-microbial activity assay, C. albicans; assay type: cell-based
Experimental: as §2

[13] = system: MCF-7 cell line; design: method as in doi:10.1016/j.jff.2013.10.018; details: cited from earlier work
[14] = system: HeLa cervical cancer cells; design: method as in PMID 26781450; details: cited from earlier work
[15] = system: C6 cells; design: method as in PMID 34896543; details: C6 glioma cells; read-out: IC50, cell survival; cited from earlier work
[16] = system: U251 cells; design: method as in PMID 34896543; details: U251 glioma cells; read-out: IC50, cell survival; cited from earlier work
[17] = system: T89G cells; design: method as in PMID 34896543; details: T89G glioma cells; read-out: IC50, cell survival; cited from earlier work
[18] = molecular target: α-glucosidase; details: ref 44; read-out: IC50, α-glucosidase inhibitory activity; cited from earlier work
[19] = system: S. aureus (MRSA; methicillin-resistant strain); design: method as in PMID 22494050; details: cited from earlier work
[20] = system: Enterococcus (VRE; vancomycin-resistant strain); design: method as in PMID 22494050; details: cited from earlier work

SMILES: COc1cc2oc3cc(O)c(OC)c(CC=C(C)C)c3c(=O)c2c(O)c1CC=C(C)C [β-mangostin]
- IC50 [1]: 21.1 ± 9.9 µM
- IC50 [2]: 18 ± 8.1 µM
- IC50 [3]: 15.4 ± 5.1 µM
- IC50 [4]: 18.9 ± 7.6 µM
- IC50 [5]: 15.4 to 21.1 µM
- IC50 [6]: 2.17 ± 0.18 µM
- IC50 ([7]; read-out: IC50): 1.24 ± 0.05 mg/L (≈ 2.92 µM)
- MIC ([7]; read-out: MIC): > 32 mg/L
- IC50 ([8]; read-out: IC50): 0.16 ± 0.01 mg/L (≈ 0.377 µM)
- MIC ([8]; read-out: MIC): 0.5 mg/L (≈ 1.18 µM)
- IC50 ([9]; read-out: IC50): 0.18 ± 0.01 mg/L (≈ 0.424 µM)
- MIC ([9]; read-out: MIC): 0.5 mg/L (≈ 1.18 µM)
- IC50 [10]: > 32 mg/L
- MIC [10]: > 32 mg/L
- MIC [11]: greater than 32 μg ml^−1
- IC50 ([11]; Pseudomonas aeruginosa): > 32 mg/L
- MIC ([11]; Pseudomonas aeruginosa, read-out: MIC): > 32 mg/L
- MIC [12]: greater than 32 μg ml^−1
- IC50 ([12]; Candida albicans, read-out: IC50): > 32 mg/L
- MIC ([12]; Candida albicans, read-out: MIC): > 32 mg/L
- IC50 ([13]; MCF-7, 24 h treatment): 26 µM
- IC50 ([13]; MCF-7, 48 h treatment): 16.5 µM
- IC50 [14]: 27.2 µM
- IC50 [15]: 4.8 µM
- IC50 [16]: 5.8 µM
- IC50 [17]: 10.3 µM
- IC50 [18]: 14.4 µM
- MIC [19]: > 200 mg/L
- MIC [20]: > 200 mg/L
